Results from a melting point compilation (Tetko et al.; mined from patent text by program, amines drawn as free bases though some values may be those of a salt).

| SMILES | melting point [°C] |
| --- | --- |
| CCOC(=O)c1c(CN=[N+]=[N-])cccc1S(=O)(=O)NC(=O)Nc1nc(OC)cc(OC)n1 | 158 to 160 |
| COC(=O)c1c(C(=O)OC)c2sc3ccccc3n2c1-c1ccc(OC)cc1 | 167 to 168 |
| O=C1NCC(C(F)(F)C(F)(F)C(F)(F)F)C(=O)N1 (stereo not given) | 223 |
| Cc1cc2c(c(C)c1NC(=O)CC(C)(C)C)C(=O)C(C)(C)O2 | 181 to 182 |
| CC(C)c1ccc(S(=O)(=O)Nc2cnc(I)cc2C(F)(F)F)cc1 | 156 |
| O=C1c2ccccc2-c2[nH]nc(-c3ccc(Cl)cc3)c21 | > 330 |
| COC1=CC(O)(SC(=O)N(C)C)C([N+](=O)[O-])C=C1 (stereo not given) | 101 |
| COc1nc(C)nc2c1-c1ccc(Cl)cc1C(c1ccccc1)=NC2 | 185 to 187 |
| Cc1ccc(S(=O)(=O)NCCCN(C)S(=O)(=O)c2ccc(C)cc2)cc1 | 93 |
| COc1cccc(OC)c1-c1cc(C(=O)NC2(C(=O)O)C3CC4CC(C3)CC2C4)nn1-c1ccc(C(=O)N(C)CCC(=O)O)cc1C(C)C (stereo not given) | 166 to 168 |
| C=C(Cc1ccccc1)C(O)C(NC=O)C(=O)OCC (stereo not given) | 87 to 89 |
| CC(=O)Nc1nc2c(Oc3cc(-c4ccc(C(F)(F)F)cc4NC(=O)C4CCCCN4CC4CC4)ncn3)cccc2s1 (stereo not given) | 212 to 214 |
| CCOC(=O)c1c(N2CCOCC2)c2cc(Cl)ccc2n(C)c1=O | 167 to 169 |
| CS(=O)(=O)c1ccc(C[C@H](CO)NC(=O)OCc2ccccc2)cc1 | 110 to 112 |
| CC[C@@]1(c2cc(F)cc(OCc3ccc4c(ccc(=O)n4C)c3)c2)CCO[C@H](C)C1 (racemic) | 99 |
| CCCCCCCCCCCCCCCCSCC(CN)NC(=O)OC(C)(C)C (stereo not given) | 46 to 47 |
| Cc1nc2c3c(ccc2n1C)C(=O)[C@H](O)[C@@H](c1ccccc1)O3 | 233 |
| CCNC(=O)c1ccc(N2CCN(Cc3cc(C)c4c(c3)NC(=O)C(C)O4)CC2)c(C)c1 (stereo not given) | 223 to 230 |
| CNC(=O)Oc1ccc(S(C)(=O)=O)c2c1CCCC2 | 162 to 164 |
| CO[C@]1(c2cnc(S)s2)CCO[C@@H]1C (racemic) | 126 to 127 |
| CCCCCCCCCCCCc1c2c(=O)c3cc(Br)ccc3c2c(CCCCCCCCCCCC)c2c(=O)c3cc(Br)ccc3c12 | 122 to 123 |
| CC1(C)CC(N2CCCC2)=CC(=C(C#N)C(O)C#N)C1 (stereo not given) | 246 to 247 |
| CCS(=O)(=O)N1CCNC1=O | 114 to 116 |
| COc1ccc(-c2nc3n(c2-c2ccc(OC)cc2)CCC3)cc1 | 146 to 148 |

Continued, values first:

| melting point [°C] | SMILES |
| --- | --- |
| 96 to 98 | O=C(Cc1ccccc1)Nc1ccccc1OCc1ccccc1 |
| 151 | COc1cc2c(cc1OC)NC(C)C(=O)N2 (stereo not given) |
| 115 to 116 | COc1ccc(C(=O)c2ccc(Cl)cc2F)c(Cl)c1Cl |
| 184 to 186 | O=C1OCCC12Sc1cc(NO)ccc1C2=O (stereo not given) |
| 89 to 91 | COc1ccc(C)c(NC(=O)CCl)c1 |
| 205 to 206 | c1cc(-c2cc3nccnc3[nH]2)cc(C2OCCCO2)c1 |
| 273 to 275 | O=c1[nH]c2ccccc2c2cc(CC(=S)N3CCOCC3)nn12 |
| 205 to 206 | O=C(O)COc1ccc(-c2c(Cl)c(CN3C(=O)CCC3=O)nc3sc4c(c23)CCS(=O)C4)cc1 (stereo not given) |
| 97 to 98 | COc1cc(C=O)cc(OC)c1F |
| 144 to 148 | Fc1ccc([C@@]2(Cn3nc[nH]c3=S)O[C@@H]2c2ccccc2F)c(F)c1 (relative stereo) |
| 110 to 115 | CCOC(=O)c1ccc(NC(=O)c2ccccc2C)cc1 |
| 44 to 46 | Oc1ccc(Oc2ccc(OC(F)(F)F)cc2)cc1 |
| 158 to 160 | CN(C)c1ccc(NS(=O)(=O)c2cccc(-c3ccc(F)cc3)c2)cc1 |
| 146 to 148 | Cc1ccc(C2COc3cc(O)ccc3C2c2ccc(OCCN3CCCCC3)cc2)cc1 (stereo not given) |
| 247 to 248 | NC(=O)COc1ccc(-c2n[nH]c3c2Cc2ccccc2-3)cc1 |
| 52 to 62 | CCOC(=O)C(=O)N(O)Cc1ccc2c(c1)OCc1ccccc1C2=O |
